Measurements reported in the supplement of paper PMC7840683.

Test system: HepaRG
Experiment: LDH release cytotoxicity, % of total lysis control; higher = more cytotoxic
Conditions: 48 h
Outline: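 The CytoTox-ONE kit was used to read LDH in 50 µL spent medium as resorufin fluorescence on a Tecan Safire, with 0.1% Triton X added to total lysis wells. Beforehand, single-lot HepaRG cells on collagen I-coated 96-well plates had been exposed in duplicate for 48 h to eight-point half-log series (top 100 µM) in serum-free induction medium containing 0.5% DMSO. Percent cytotoxicity was normalized against on-plate vehicle and total lysis controls and averaged over duplicates.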

C1N2CN3CN1CN(C2)C3 [Methenamine]
Conditions | LDH release cytotoxicity [%]
0.0322552 µM | -1.06
0.102 µM | -1.56
0.322552 µM | -1.99
1.02 µM | -2.63
3.2255232 µM | -1.7
10.2 µM | -1.59
32.2552 µM | -1.01
102 µM | 0.286

O=C(O)Cn1c(=O)n(Cc2ccc(Br)cc2F)c(=O)c2ccc(Cl)cc21 [Zenarestat]
Conditions | LDH release cytotoxicity [%]
0.03162 µM | -0.858
0.1 µM | -0.293
0.3162278 µM | -0.841
1 µM | -0.408
3.16228 µM | -0.109
10 µM | 0.443
31.6228 µM | -0.513
100 µM | 0.792

NS(=O)(=O)c1cc2c(cc1Cl)NCNS2(=O)=O [Hydrochlorothiazide]
Conditions | LDH release cytotoxicity [%]
0.03162 µM | -0.499
0.1 µM | -1.26
0.3162278 µM | -1.458
1 µM | -1.51
3.16228 µM | -1.15
10 µM | -0.679
31.6228 µM | -1.51
100 µM | -0.146

Cc1cccc2ccccc12 [1-Methylnaphthalene]
Conditions | LDH release cytotoxicity [%]
0.031623 µM | -2.15
0.1 µM | -2.7
0.316228 µM | -2.77
1 µM | -3.13
3.16228 µM | -2.9
10 µM | -2.97
31.6228 µM | -1.66
100 µM | 13.3

CN(C)NC(=O)CCC(=O)O [Daminozide]
Conditions | LDH release cytotoxicity [%]
0.03162 µM | -1.88
0.1 µM | -1.67
0.3162278 µM | -1.27
1 µM | -0.212
3.16228 µM | -1.11
10 µM | -0.0868
31.6228 µM | 0.553
100 µM | 1.58

NCCOCCOCCN [2,2'-[Ethane-1,2-diylbis(oxy)]diethanamine]
Conditions | LDH release cytotoxicity [%]
0.03162 µM | -0.945
0.1 µM | -1.12
0.3162278 µM | -0.214
1 µM | 0.303
3.16228 µM | 2.6
10 µM | 2.46
31.6228 µM | 1.93
100 µM | 4

CC(O)CC(C)(C)O (centres undefined) [2-Methyl-2,4-pentanediol]
Conditions | LDH release cytotoxicity [%]
0.03162 µM | -1.84
0.1 µM | -2.18
0.3162278 µM | -2.81
1 µM | -2.8
3.16228 µM | -2.62
10 µM | -2.46
31.6228 µM | -2.69
100 µM | -0.649

CC(O)CN(CCN(CC(C)O)CC(C)O)CC(C)O (centres undefined) [1,1',1'',1'''-(Ethanediylnitrilo)tetrakis(2-propanol)]
Conditions | LDH release cytotoxicity [%]
0.03162 µM | -1.14
0.1 µM | -1.86
0.3162278 µM | -1.7
1 µM | -2.22
3.16228 µM | -2.41
10 µM | -1.35
31.6228 µM | 5.57
100 µM | 18.7

NC(=O)c1nc(-c2cccc(-c3cc(F)ccc3OCC(F)(F)C(F)(F)F)c2)n[nH]1 [MK-274]
Conditions | LDH release cytotoxicity [%]
0.03162 µM | -1.29
0.1 µM | -0.429
0.3162278 µM | -0.661
1 µM | -1.07
3.16228 µM | -0.753
10 µM | -0.915
31.6228 µM | 0.166
100 µM | 86.6

Cc1ccc2ncccc2c1 [6-Methylquinoline]
Conditions | LDH release cytotoxicity [%]
0.03162 µM | -1.09
0.1 µM | -1.74
0.3162278 µM | -0.691
1 µM | -0.702
3.16228 µM | 1.12
10 µM | 3.62
31.6228 µM | 6.32
100 µM | 12.7

CCOP(=S)(OCC)SCSC(C)(C)C [Terbufos]
Conditions | LDH release cytotoxicity [%]
0.03162 µM | -1.37
0.1 µM | -0.712
0.3162278 µM | -1.15
1 µM | -1.03
3.16228 µM | -0.647
10 µM | -0.0424
31.6228 µM | -0.0818
100 µM | 1.12

COC(=O)c1ccccc1O [Methyl salicylate]
Conditions | LDH release cytotoxicity [%]
0.03162 µM | -1.8
0.1 µM | -0.746
0.3162278 µM | -0.192
1 µM | -1.39
3.16228 µM | -1.33
10 µM | -0.567
31.6228 µM | -1.23
100 µM | 0.0854

Cc1ccc(C)c(C)c1 [1,2,4-Trimethylbenzene]
Conditions | LDH release cytotoxicity [%]
0.03162 µM | -1.1
0.1 µM | -1.09
0.3162278 µM | -1.49
1 µM | -1.38
3.16228 µM | -0.646
10 µM | -0.854
31.6228 µM | 0.161
100 µM | 1.55

FC(F)C(F)(F)OCC(Cn1cncn1)c1ccc(Cl)cc1Cl (centres undefined) [Tetraconazole]
Conditions | LDH release cytotoxicity [%]
0.0314647 µM | -0.665
0.0995 µM | -2.23
0.3146466 µM | -1.54
0.995 µM | -2.38
3.14647 µM | -2.48
9.95 µM | -2.1
31.4647 µM | 1.5
99.5 µM | 52.5

Oc1ccc2ccccc2c1N=Nc1ccccc1 [C.I. Solvent Yellow 14]
Conditions | LDH release cytotoxicity [%]
0.031623 µM | -0.466
0.1 µM | -3.7
0.316228 µM | -3.44
1 µM | -2.66
3.16228 µM | -0.781
10 µM | -0.446
31.6228 µM | -2.17
100 µM | -3.46

Cn1c(=O)cc(Oc2ccc(F)cc2F)c2cnc(NCC(C)(C)O)nc21
Conditions | LDH release cytotoxicity [%]
0.03162 µM | -1.61
0.1 µM | -1.64
0.3162278 µM | -0.855
1 µM | -0.86
3.16228 µM | -1.12
10 µM | -1.19
31.6228 µM | -0.929
100 µM | -1.1

CNC(=O)Oc1cccc2c1OC(C)(C)C2 [Carbofuran]
Conditions | LDH release cytotoxicity [%]
0.03162 µM | -0.0403
0.1 µM | -0.693
0.3162278 µM | -0.49
1 µM | -0.23
3.16228 µM | -0.812
10 µM | -1.07
31.6228 µM | -0.52
100 µM | 0.343

COC(=O)CC(=O)OC [Dimethyl malonate]
Conditions | LDH release cytotoxicity [%]
0.03162 µM | -0.603
0.1 µM | -0.89
0.3162278 µM | -0.395
1 µM | -0.704
3.16228 µM | -0.831
10 µM | -0.0631
31.6228 µM | 0.8
100 µM | 1.4
